These results are taken from patent publication US8883856B2, “Compositions and methods for the treatment of inflammatory diseases using topoisomerase inhibitors” (priority 2000, dated 2014).

One data set concerns caspase 3. Briefly: Caspase 3 activation in neutrophils (caspACE assay system). Format: cell-based, human. The source says:
The inflammation associated with many forms of arthritis is thought to arise from the presence of large numbers of immune cells, such as neutrophils, in the synovial joints of humans. The extended inflammation associated with crystal induced arthritis arises from the interaction of neutrophils with crystals in the synovial joint. One reason the extended duration of the inflammation in this disease may be due to the inhibition of neutrophil apoptosis by crystals. This inhibition may result in the neutrophils remaining in the joint for extended periods. Compounds that overcome this crystal induced suppression of neutrophil apoptosis therefore allow the more rapid clearance of these cells from the joint with the appropriate abatement of inflammation. The process of apoptosis involves the endonuclease driven cleavage of DNA into fragments which may be visualized as a ladder of bands in an agarose gel electrophoresis experiment. Other assays that may be used include caspase 3 quantitation or measurements of cytoplasmic DNA concentration. […] Agents that inhibit caspase activation levels or reduce cytoplasmic DNA are pro-survival (potentially inflammatory) and agents that promote are pro-apoptotic and anti-inflammatory. The use of these methods and their role in neutrophil affected inflammation is described in detail in Tudan et al. J Rheumatol. 27 p 2463-72. 2000.
Methods: Agarose gel banding/laddering of 180 base pairs: Neutrophils were separated from fresh human blood by standard methods (dextran sedimentation and ficoll paque centrifugation) and suspended in buffer at a concentration of 1×10^6 cells/ml. The cells were then incubated with crystals of calcium pyrophosphate dihydrate (CPPD) for 1 hours at 37° C. The cells were then incubated with or without camptothecin (0.1 uM) for 4 hours at 37° C. Neutrophil aliquots (1×10^6 cells) from different conditions were resuspended in 480 μl of lysis buffer (0.6% SDS, 10 mM Tris, 1 mM EDTA (pH 7.0)) and after vigorous mixing were allowed to sit on ice for 20 min after addition of 120 μl of 5M NaCl. In caspase 3 and DNA fragmentation assays a milder detergent (Triton) was used to lyse only the plasma membrane of the cells so that cytoplasmic contents (caspase 3 or DNA fragments) could be assayed. Samples were sedimented at 14,000 rpm at 4° C. for 20 min. The pellet was dried and resuspended in phenol:chloroform. Four hundred fifty μl of the upper phase was added to a new tube, which was then charged with 950 μl of […] and held at −20° C. for 10 min. The DNA was sedimented at 14,000 rpm (4° C.) and carefully washed in 75% ethanol without disturbing the pellet. The DNA was dried at 37° C. and then resuspended in 20 μl sample buffer (50% TBE with 1 μl of 1 ng/ml RNase A (Pharmacia)). The samples were vortexed and allowed to stand at 37° C. for 10 min. Five μl of loading dye (20% Ficoll Paque (Pharmacia), 0.1% bromophenol blue, 0.1% xylene cyanole) was added. Electrophoresis was carried out in 2% agarose at 80 mA, and the gel was then stained with ethidium bromide (Pharmacia) and photographed under U.V. illumination.
Caspase 3 activation was assayed using a commercial kit for this enzyme (caspACE assay system, Promega Scientific) and cyotplasmic DNA was assayed using a commercial kit (Cell death detection ELISA-Boehringer—Mannheim).

In another data set the test system is stromelycin gene. Briefly: IL-1 induced stromelycin gene expression in chondrocytes. The note with it: for stromelysin expression: 1×10^−6 M. Format: cell-based, calf. The source says:
(§1) This assay measures the levels of RNA for the two metalloproteinases, collagenase and stromelysin. Over-expression of these genes results in excessive synthesis and secretion of these two enzymes from articular chondrocytes and may represent part of the pathophysiology of rheumatoid arthritis. Agents that inhibit over-expression of collagenase and stromelysin can be antiarthritc agents. […] Proteoglycan gene expression is part of the normal physiology of chondrocytes.
(§2) Primary chondrocyte culture was freshly isolated from calf cartilage. The cells were plated (at 2.5×10^6/mL) in 100×20 mm culture dishes and incubated in Ham's F12 medium containing 5% fetal bovine serum (FBS) overnight at 37° C. The cells were starved with serum-free medium overnight. […] Then IL-1 (20 ng/mL) was added to each plate and the plates were incubated for an additional 18 hours. Total RNA was isolated by the acidified guanidine isothiocyanate method and subjected to electrophoresis on a denatured gel. Denatured RNA samples (15 ug) were analyzed by gel electrophoresis in a 1% denaturing gel, transferred to a nylon membrane, and hybridized respectively with the ^32P-labelled collagenase cDNA probe, ^32P-labelled stromelycin cDNA probe, ^32P-labelled proteoglycan cDNA probe and ^32P-labelled glyceraldehyde phosphate dehydrogenase (PAGDH) cDNA. The PAGDH levels acted as an internal standard to ensure roughly equal loading. The experimental results on X-ray films were scanned and analyzed with HP ScanJet.

A further data set relates to collagenase gene. Put plainly: IL-1 induced collagenase gene expression in chondrocytes. The class given is cell-based, calf.
Excerpt: as §1, §2

The next data set concerns rat carotid artery. The class given is in vivo. The note with it: for inhibition of intimal hyperplasia / inhibition of luminal narrowing: perivascular. The text has this:
In this model of restenosis, a balloon catheter is used to induce damage to the lumen of carotid arteries in rats. This damage causes extensive intimal hyperplasia and luminal narrowing, characteristic of restenosis. To determine the effect of drugs as antirestenosis agents, a polymeric dosage form of a drug is applied to the outside of the artery (perivascular application).
Wistar rats weighing 400 g to 500 g were anesthetized with halothane. A vertical incision was made over the trachea and the left carotid artery was exposed. Two ligatures were placed around the external carotid artery and an arteriotomy was made between them. A 2 French Fogarty balloon catheter was introduced into the external carotid artery and pushed into the left common carotid artery and the balloon was inflated with saline. The catheter was passed up and down the entire length of the carotid artery three times to stretch the vessel and denude the endothelium. The catheter was removed and the ligatures were tied off on the external carotid artery. […] The wound was then closed and the animals recovered. After 14 days, the rats were sacrificed and pressure perfused at 100 mmHg with 10% buffered formaldehyde. Both carotid arteries were harvested and processed for histology. Serial cross-sections were cut every 2 mm within and outside the implant in the injured left carotid artery and at corresponding levels in the control right carotid artery. Sections were stained with hematoxylin-and-eosin and Movat's stains and digitized for computer assisted morphometric analysis to quantify luminal narrowing and intimal hyperplasia.

In the next data set the test system is proteoglycan gene. Put plainly: Proteoglycan gene expression in chondrocytes. The class given is cell-based, calf.
Excerpt: as §1
Primary chondrocyte culture was freshly isolated from calf cartilage. The cells were plated (at 2.5×10^6/mL) in 100×20 mm culture dishes and incubated in Ham's F12 medium containing 5% fetal bovine serum (FBS) overnight at 37° C. The cells were starved with serum-free medium overnight. The cells were pretreated with camptothecin at concentrations of 10^−6 M, 10^−7 M and 10^−8 M for 6 hours. Then IL-1 (20 ng/mL) was added to each plate and the plates were incubated for an additional 18 hours. Total RNA was isolated by the acidified guanidine isothiocyanate method and subjected to electrophoresis on a denatured gel. Denatured RNA samples (15 ug) were analyzed by gel electrophoresis in a 1% denaturing gel, transferred to a nylon membrane, and hybridized respectively with the ^32P-labelled collagenase cDNA probe, ^32P-labelled stromelycin cDNA probe, ^32P-labelled proteoglycan cDNA probe and ^32P-labelled glyceraldehyde phosphate dehydrogenase (PAGDH) cDNA. The PAGDH levels acted as an internal standard to ensure roughly equal loading. The experimental results on X-ray films were scanned and analyzed with HP ScanJet.

SMILES strings stand for the structures. Read-outs that look alike come from different tables or passages of the source.

As to `COc1cc([C@@H]2c3cc4c(cc3[C@@H](O[C@@H]3O[C@@H]5CO[C@@H](C)O[C@H]5[C@H](O)[C@H]3O)[C@H]3COC(=O)[C@H]23)OCO4)cc(OC)c1O` [etoposide], in the data set on caspase 3, the “caspase 3 activation in neutrophils” value is “induced an increase in the activation of caspase 3 levels”. Moreover, the “IL-1 induced stromelycin gene expression” value with stromelycin gene (1×10^−5 M) was “inhibited”. Besides, the “IL-1 induced collagenase gene expression” value in the data set on collagenase gene (1×10^−5 M) is listed as “inhibited”. The “inhibition of intimal hyperplasia” value in the data set on rat carotid artery (both 1% and 5% loaded EVA films) was “approximately 75%”. In the data set on rat carotid artery (rat, in vivo), the “necrosis or toxicity after perivascular application” value (“necrosis or toxicity” below) was “did not induce any necrosis or toxicity in surrounding tissue”.
`CC1(C)CCC2=C(O1)c1ccccc1C(=O)C2=O` [beta-lapachone]: the “caspase 3 activation in neutrophils” value in the data set on caspase 3 is “induced an increase in the activation of caspase 3 levels”. Further, the “IL-1 induced stromelycin gene expression” value with stromelycin gene (1×10^−5 M) is reported as “almost completely inhibited”. For the same compound, the proteoglycan expression entry in the data set on proteoglycan gene was “without excessive inhibition”. Further, in the data set with collagenase gene (1×10^−5 M), the “IL-1 induced collagenase gene expression” value is “almost completely inhibited”.
Turning to `CC1=CC(=O)c2ccccc2C1=O` [menadione], the “IL-1 induced stromelycin gene expression” value in the data set on stromelycin gene (1×10^−5 M) was “inhibited”. Moreover, in the data set on proteoglycan gene, the proteoglycan expression entry is given as “without excessive inhibition”. The “IL-1 induced collagenase gene expression” value in the data set on collagenase gene (1×10^−5 M) was “inhibited”.
On to `CC[C@@]1(O)C(=O)OCc2c1cc1n(c2=O)Cc2cc3ccccc3nc2-1` [camptothecin], for which the “caspase 3 activation in neutrophils” value in the data set with caspase 3 is “induced high levels of caspase 3 activation”. The “IL-1 induced stromelycin gene expression” value with stromelycin gene (1×10^−7 M) is on record as “almost completely inhibited”. The proteoglycan expression result with proteoglycan gene (1×10^−7 M) is “without excessive inhibition”. In addition, the “IL-1 induced collagenase gene expression” value with collagenase gene (1×10^−7 M) is recorded as “almost completely inhibited”. In addition, the “inhibition of luminal narrowing” value in the data set on rat carotid artery (0.2% (w/w to EVA) film) was “more than 50%”. The “inhibition of intimal hyperplasia” value is given as “partial inhibition” in the data set with rat carotid artery (0.2%, 1% and 10% loaded EVA films, 14 days); “Complete inhibition” with rat carotid artery (20% loaded EVA film, 14 days). Also, the luminal narrowing result with rat carotid artery (all concentrations above 0.2% in EVA film) is given as “reduced the luminal narrowing to almost zero”.
For the compound `COc1cccc2c1C(=O)c1c(O)c3c(c(O)c1C2=O)C[C@@](O)(C(=O)CO)C[C@@H]3O[C@H]1C[C@H](N)[C@H](O)[C@H](C)O1` [doxorubicin], the “caspase 3 activation in neutrophils” value with caspase 3 is given as “induced an increase in the activation of caspase 3 levels”. In the data set with stromelycin gene (1×10^−5 M), the “IL-1 induced stromelycin gene expression” value is recorded as “completely inhibited”. The stromelysin expression entry in the data set with stromelycin gene is on record as “partial inhibition”. For the same compound, the “IL-1 induced collagenase gene expression” value with collagenase gene (1×10^−5 M) was “completely inhibited”. In the data set on rat carotid artery (2% loading (w/w to EVA) film), the “inhibition of intimal hyperplasia” value was “completely inhibited” and the “inhibition of luminal narrowing” value is “completely inhibited”. In the data set on rat carotid artery (rat, in vivo), the “necrosis or toxicity” value was “did not induce any necrosis or toxicity in surrounding tissue”.
For the compound `CC1=CC(=O)c2c(O)cccc2C1=O` [plumbagin], in the data set on stromelycin gene (1×10^−5 M), the “IL-1 induced stromelycin gene expression” value is given as “completely inhibited”. Moreover, the stromelysin expression result in the data set with stromelycin gene is recorded as “partial inhibition”. In addition, the “IL-1 induced collagenase gene expression” value in the data set with collagenase gene (1×10^−5 M) is “completely inhibited”. Further, the “necrosis or toxicity” value in the data set on rat carotid artery (applied to the perivascular side of the rat carotid artery) is listed as “excessive toxicities”.
